Test systems include Escherichia coli DC2; Candida albicans 105; Escherichia coli O111; Escherichia coli O157:H7; Escherichia coli UB1005; Candida albicans 3153A; Staphylococcus aureus 75; Escherichia coli 780; Escherichia coli 804; Candida albicans DBFIQ 1; Candida albicans PEEC 2; Staphylococcus aureus; Escherichia coli; Lactococcus lactis; Bacillus cereus.
Holding throughout (assay): ≥ marks a high value that may be exact or a test limit, other limits are often not marked, values filed in µg/mL are converted to µM
Assay [1] concerns Salmonella enterica subsp. enterica serovar Typhimurium ATCC 14028s.
Assay [2] concerns Staphylococcus aureus NCTC 4163.
The test system of assay [3] is Staphylococcus aureus 1056.
In assay [4] the test system is Pseudomonas aeruginosa PAO1.
The subject of assay [5] is Pseudomonas aeruginosa Z61.
In assay [6] the test system is Enterococcus faecalis ATCC 29212.
Assay [7] relates to Staphylococcus epidermidis.
Assay [8] deals with Staphylococcus aureus R147.
The subject of assay [9] is Salmonella enterica serovar Typhimurium MS4252S.
The subject of assay [10] is Candida albicans ATCC 64549.
Assay [11] concerns Staphylococcus epidermidis ATCC 12228.
Assay [12] relates to Acinetobacter baumannii 9931.
Assay [13] deals with Pseudomonas aeruginosa ATCC 9027.
Assay [14] deals with Staphylococcus aureus 113.
The subject of assay [15] is Pseudomonas aeruginosa 73.
Assay [16] concerns Bacillus subtilis ATCC 23857.
In assay [17] the test system is Staphylococcus aureus ATCC 29213.
Assay [18] has as its system Staphylococcus aureus ATCC 25923.
Assay [19] concerns Escherichia coli ATCC 25922.
For assay [20], the system named is Klebsiella pneumoniae ATCC 700603.
Assay [21] has as its system Acinetobacter baumannii 97830.
The subject of assay [22] is Acinetobacter baumannii ATCC 19606.
The test system of assay [23] is Pseudomonas aeruginosa 50.
Assay [24] has as its system Pseudomonas aeruginosa ATCC 27853.
For assay [25], the system named is Staphylococcus aureus BSF FBCB1313.
Assay [26] relates to Escherichia coli ATCC 35218.
In assay [27] the test system is Candida tropicalis DBFIQ 3.
The subject of assay [28] is Candida albicans ATCC 36232.
Assay [29] deals with Escherichia coli KCTC 2433.
Assay [30] has as its system Shigella dysenteriae ATCC 9752.
For assay [31], the system named is Micrococcus luteus ATCC 4698.
Assay [32] relates to Staphylococcus aureus KCTC 3881.
The subject of assay [33] is Bacillus subtilis ATCC 6633.
Assay [34] relates to Klebsiella pneumoniae ATCC 10031.
For assay [35], the system named is Proteus mirabilis ATCC 25933.

Results on 5 compounds are retold here after DBAASP.

In brackets after ≈: the same amount, converted by molar mass. Several values for one entry are separate records, joined by “and”; a condition that tells them apart may be missing. Identical values can stand only once.

Take `CC[C@H](C)[C@H](NC(=O)[C@@H]1CCCN1C(=O)[C@H](CCCN=C(N)N)NC(=O)[C@@H]1CCCN1C(=O)[C@@H](NC(=O)[C@H](CCCN=C(N)N)NC(=O)[C@@H](N)CCCN=C(N)N)[C@@H](C)CC)C(=O)N[C@@H](CC(C)C)C(=O)N[C@@H](CC(C)C)C(=O)N1CCC[C@H]1C(=O)N[C@@H](Cc1c[nH]c2ccccc12)C(=O)N[C@@H](CCCN=C(N)N)C(=O)N1CCC[C@H]1C(=O)N1CCC[C@H]1C(=O)N[C@@H](CCCN=C(N)N)C(=O)N1CCC[C@H]1C(=O)N[C@H](C(=O)N1CCC[C@H]1C(=O)N[C@@H](CCCN=C(N)N)C(=O)N1CCC[C@H]1C(=O)N[C@@H](CCC(N)=O)C(=O)N1CCC[C@H]1C(=O)N[C@@H](CCC(N)=O)C(=O)N1CCC[C@H]1C(=O)N[C@H](C(=O)N1CCC[C@H]1C(=O)N[C@@H](CCCN=C(N)N)C(=O)N[C@@H](Cc1c[nH]c2ccccc12)C(=O)N[C@@H](CC(C)C)C(N)=O)[C@@H](C)CC)[C@@H](C)CC` [RRIPRPILLPWRPPRPIPRPQPQPIPRWL]: the minimum inhibitory concentration (MIC) – broadly, the least concentration at which growth counts as inhibited – in [1] was 8.89 µM (≈ 32 µg/mL); in assay [2], 17.8 µM (≈ 64 µg/mL); in assay [3], 17.8 µM (≈ 64 µg/mL); in assay [4] it was 4.44 µM (≈ 16 µg/mL); against Escherichia coli DC2 it was 0.555 µM (≈ 2 µg/mL); in assay [5] it was 8.89 µM (≈ 32 µg/mL). Also, the minimal inhibitory concentration (MIC) was 17.8 µM (≈ 64 µg/mL) in the assay on Candida albicans 105; 4.44 µM (≈ 16 µg/mL) in the assay with Escherichia coli O111; 8.89 µM (≈ 32 µg/mL) against Escherichia coli O157:H7; 17.8 µM (≈ 64 µg/mL) in [6]; 8.89 µM (≈ 32 µg/mL) in assay [7]; 8.89 µM (≈ 32 µg/mL) in assay [8]. For the same compound, the MIC against Escherichia coli UB1005 worked out at 2.22 µM (≈ 8 µg/mL); in the assay with Candida albicans 3153A, 17.8 µM (≈ 64 µg/mL); in assay [9] it was 0.555 µM (≈ 2 µg/mL).
Regarding `CSCC[C@H](NC(=O)[C@H](CC(N)=O)NC(=O)[C@H](CCCN=C(N)N)NC(=O)[C@H](CCC(N)=O)NC(=O)[C@H](Cc1c[nH]c2ccccc12)NC(=O)[C@H](CCC(N)=O)NC(=O)[C@H](Cc1ccccc1)NC(=O)[C@@H](N)CS)C(=O)N[C@@H](CCCN=C(N)N)C(=O)N[C@@H](CCCCN)C(=O)N[C@H](C(=O)N[C@@H](CCCN=C(N)N)C(=O)O)C(C)C` [CFQWQRNMRKVR], the minimal inhibitory concentration (MIC) in [10] was 7.57 µM (≈ 12.5 µg/mL).
Turning to `C[C@H](N)C(=O)N[C@@H](CCCN=C(N)N)C(=O)N[C@@H](Cc1c[nH]c2ccccc12)C(=O)N[C@@H](Cc1c[nH]c2ccccc12)C(=O)N[C@@H](Cc1c[nH]c2ccccc12)C(=O)N[C@@H](CCCN=C(N)N)C(=O)N[C@@H](C)C(N)=O` [ARWWWRA], the MIC in assay [11] is 32 µM (≈ 33 µg/mL); in the assay with Staphylococcus aureus 75, at least 64 µM; in [12] it was at least 128 µM; in assay [13], above 128 µM; in [14], at least 64 µM; in assay [15], at least 128 µM. For the same compound, the MIC in assay [16] was 16 µM (≈ 16.5 µg/mL); in assay [17] it was 128 µM (≈ 132 µg/mL); in assay [18], 64 µM and 128 µM; in assay [19] it was above 128 µM; in assay [20], above 128 µM; in assay [21] it was at least 128 µM. The minimal inhibitory concentration (MIC) is above 128 µM in assay [22]; at least 128 µM in [23]; at least 128 µM in the assay on Escherichia coli 780; at least 128 µM against Escherichia coli 804; above 128 µM in assay [24].
Consider `CC(C)C[C@H](NC(=O)[C@H](CCCCN)NC(=O)[C@H](CCCCN)NC(=O)[C@H](Cc1ccccc1)NC(=O)[C@H](CC(C)C)NC(=O)[C@@H](N)CCCCN)C(=O)N[C@@H](Cc1ccccc1)C(=O)N[C@@H](CCCCN)C(N)=O` [KLFKKLFK], for which the MIC in [25] was 30.5 µM (≈ 32 µg/mL); in assay [18], 7.6 µM (≈ 7.98 µg/mL); in the assay on Candida albicans DBFIQ 1, at least 122 µM; in [26], 7.6 µM (≈ 7.98 µg/mL); against Candida albicans PEEC 2, at least 122 µM; in [6], 15.2 µM (≈ 16 µg/mL). The results for the MIC in assay [24] and in assay [27] were 60.9 µM (≈ 64 µg/mL) and at least 122 µM, respectively.
Turning to `CC[C@H](C)[C@H](NC(=O)[C@H](CC(C)C)NC(=O)[C@@H](N)Cc1ccccc1)C(=O)NCC(=O)N[C@@H](CCSC)C(=O)N[C@H](C(=O)N[C@@H](CCC(N)=O)C(=O)NCC(=O)N[C@@H](CC(C)C)C(=O)N[C@H](C(=O)N[C@H]1CSSC[C@@H](C(=O)O)NC(=O)[C@H](CCCCN)NC(=O)[C@H](CCCN=C(N)N)NC(=O)[C@H]([C@@H](C)O)NC(=O)[C@H]([C@@H](C)CC)NC(=O)[C@H](CC(C)C)NC1=O)[C@@H](C)CC)[C@@H](C)O` [FLIGMTQGLICLITRKC], the MIC in [11] is 13.1 µM (≈ 25 µg/mL); in assay [28], at least 52.3 µM; in [29], 31.4 µM (≈ 59.9 µg/mL); in the assay on Staphylococcus aureus it was 12.8 µM (≈ 24.4 µg/mL); in assay [30] it was 26.2 µM (≈ 49.9 µg/mL); in assay [13], above 52.3 µM. Also, the minimal inhibitory concentration (MIC) turned out to be 3.27 µM (≈ 6.24 µg/mL) in [31]; 7.85 µM (≈ 15 µg/mL) in assay [32]; 25.6 µM (≈ 48.9 µg/mL) in the assay on Escherichia coli; 25.6 µM (≈ 48.9 µg/mL) in the assay with Lactococcus lactis; 13.1 µM (≈ 25 µg/mL) in assay [33]; 31.4 µM (≈ 59.9 µg/mL) in [34]. Further, the minimal inhibitory concentration (MIC) in [35] was at least 52.3 µM; against Bacillus cereus it was 25.6 µM (≈ 48.9 µg/mL).
